Data on eight compounds can be found in ChEMBL document CHEMBL1201862, “PubChem BioAssay data set” (2004).

Experiment [1] has as its target Metabotropic glutamate receptor 5 (Rattus norvegicus, UniProt P31424). Description: Identification of a glycine sulfonamide based non-MPEP site positive allosteric potentiator (PAM) of mGlu5 (calcium_assay). The class given is functional.
The target in experiment [2] is T1, Oxysterols receptor LXR-beta (Homo sapiens, UniProt P55055).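 Further: agonist activity at LXR measured by a cell-based luminescence readout across a dose range, run as a counterscreen for daf-12 agonists; HEK293 cells with Gal4-LXR fusion and GAL4-driven luciferase reporter; potency for activation of Gal4-LXR reporter so compounds are agonists.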
T1 sequence (P55055 whole entry): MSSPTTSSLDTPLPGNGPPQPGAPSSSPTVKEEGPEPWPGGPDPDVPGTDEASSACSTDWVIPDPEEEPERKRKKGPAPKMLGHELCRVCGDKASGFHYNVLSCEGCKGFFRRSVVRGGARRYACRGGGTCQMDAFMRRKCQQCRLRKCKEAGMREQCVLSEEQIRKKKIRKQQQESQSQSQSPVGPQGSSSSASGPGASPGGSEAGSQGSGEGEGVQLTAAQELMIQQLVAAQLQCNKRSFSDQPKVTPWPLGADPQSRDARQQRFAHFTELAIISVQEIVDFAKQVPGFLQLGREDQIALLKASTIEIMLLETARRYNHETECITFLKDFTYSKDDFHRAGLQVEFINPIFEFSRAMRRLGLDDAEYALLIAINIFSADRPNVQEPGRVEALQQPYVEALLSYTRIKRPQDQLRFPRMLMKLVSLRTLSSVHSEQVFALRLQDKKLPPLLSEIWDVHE
The class given is functional, cell-based.

Experiment [3] concerns the target Metabotropic glutamate receptor 3 (Rattus norvegicus, UniProt P31422). Description: inhibition of rat mGlu3 glutamate signaling – HEK/GIRK cells, thallium flux, dose response (AID 651839). The class given is functional.
For experiment [4], the target named is T2, High affinity choline transporter 1 (Homo sapiens, UniProt Q9GZV3).
T2 sequence (Q9GZV3 whole entry): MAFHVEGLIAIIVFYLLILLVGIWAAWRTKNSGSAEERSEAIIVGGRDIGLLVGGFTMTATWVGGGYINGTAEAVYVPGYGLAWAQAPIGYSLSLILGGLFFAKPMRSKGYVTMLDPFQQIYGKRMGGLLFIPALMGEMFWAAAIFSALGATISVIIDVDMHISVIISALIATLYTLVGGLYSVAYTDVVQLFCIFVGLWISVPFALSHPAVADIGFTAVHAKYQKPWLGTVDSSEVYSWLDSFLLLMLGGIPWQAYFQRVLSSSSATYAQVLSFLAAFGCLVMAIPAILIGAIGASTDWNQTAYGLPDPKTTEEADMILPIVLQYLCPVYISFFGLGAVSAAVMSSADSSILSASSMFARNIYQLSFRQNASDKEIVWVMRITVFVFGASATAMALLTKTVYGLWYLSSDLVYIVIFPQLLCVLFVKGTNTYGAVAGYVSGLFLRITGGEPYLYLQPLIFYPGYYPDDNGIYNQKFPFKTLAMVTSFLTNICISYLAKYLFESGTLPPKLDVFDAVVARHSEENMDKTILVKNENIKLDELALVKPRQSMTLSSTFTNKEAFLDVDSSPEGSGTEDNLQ
Kind of experiment: human choline transporter blockers, potency – cell-based, 5-point CRC, membrane potential dye, dose response (AID 504840). The class given is functional.

The target in another experiment is Large T antigen (Simian virus 40, UniProt P03070). The class given is functional, Betapolyomavirus macacae.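 Further: Confirmatory-stage PubChem screen for compounds that inhibit SV40 T antigen.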
In experiment [5] the target is Endoplasmic reticulum aminopeptidase 1 (Homo sapiens, UniProt Q9NZ08). Description: inhibition of human ERAP1 enzyme activity – biochemical, cherry-pick, set 2, plate reader, dose response (AID 743314).
Experiment [6] can be described thus: Late stage assay provider results from the probe development effort to identify selective inhibitors of heat shock protein 90 (HSP90): Absorbance-based cell proliferation assay in SKBR3 cells. The following applies: SK-BR-3. The class given is functional.
A short description of experiment [7]: Late stage assay provider results from the probe development effort to identify selective inhibitors of heat shock protein 90 (HSP90): Absorbance-based cell proliferation assay in MCF7 cells. The class given is functional.
The target in experiment [8] is Potassium channel subfamily K member 9 (Homo sapiens, UniProt Q9NPC2). Kind of experiment: KCNK9 flux blockade, concentration-response – cell-based, FluxOR thallium flux, selectivity assay for TASK1 inhibitor project, SAR follow-up (AID 652211).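 Further: potency is for inhibitors of the channel.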 The class given is functional.
Experiment [9] concerns the target Potassium channel subfamily K member 3 (Homo sapiens, UniProt O14649). Kind of experiment: inhibition of human KCNK3 channel flux – CHO cells, FluxOR thallium flux, SAR follow-up (AID 652212). The class given is functional.
The target in a further experiment is Cytochrome P450 3A4 (Homo sapiens, UniProt P08684). The following applies: Potency.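 Further: confirmatory qHTS run detecting inhibitors and substrates of CYP3A4.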
Experiment [10] can be described thus: viability loss in CEM21 cells – cell-based, plate reader, dry powder, cytotoxicity control, dose response (AID 687026). The class given is functional.
A further experiment deals with Cytochrome P450 2C19 (Homo sapiens, UniProt P33261). Kind of experiment: qHTS Assay for Inhibitors and Substrates of Cytochrome P450 2C19. [Related pubchem assays: 410 ]. The class given is ADME. The following applies: read-out: Potency. (In general: Quantitative high-throughput screening tests each substance at several concentrations.)
Experiment [11] has as its system HEK293. Kind of experiment: NOD2 signaling inhibitors in MDP-stimulated cells, cell-based, uHTS, luminescence (AID 2001). The class given is functional. Particulars: Homo sapiens.
Experiment [12] concerns HEK293. Kind of experiment: cells. The class given is functional, cell-based. The following applies: Homo sapiens.
The nature of experiment [13]: viability loss in HepG2 hepatoma cells – cell-based, ATP luminescence, cherry-pick, activator set 2, cytotoxicity control, dose response (AID 1053143). The class given is functional.
The target in experiment [14] is T3, Sentrin-specific protease 6 (Homo sapiens, UniProt Q9GZR1).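 Further: Luminescence-based dose-response confirmatory assay of SENP6 inhibition, following up an ultra-high-throughput screen.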
T3 sequence (Q9GZR1 whole entry): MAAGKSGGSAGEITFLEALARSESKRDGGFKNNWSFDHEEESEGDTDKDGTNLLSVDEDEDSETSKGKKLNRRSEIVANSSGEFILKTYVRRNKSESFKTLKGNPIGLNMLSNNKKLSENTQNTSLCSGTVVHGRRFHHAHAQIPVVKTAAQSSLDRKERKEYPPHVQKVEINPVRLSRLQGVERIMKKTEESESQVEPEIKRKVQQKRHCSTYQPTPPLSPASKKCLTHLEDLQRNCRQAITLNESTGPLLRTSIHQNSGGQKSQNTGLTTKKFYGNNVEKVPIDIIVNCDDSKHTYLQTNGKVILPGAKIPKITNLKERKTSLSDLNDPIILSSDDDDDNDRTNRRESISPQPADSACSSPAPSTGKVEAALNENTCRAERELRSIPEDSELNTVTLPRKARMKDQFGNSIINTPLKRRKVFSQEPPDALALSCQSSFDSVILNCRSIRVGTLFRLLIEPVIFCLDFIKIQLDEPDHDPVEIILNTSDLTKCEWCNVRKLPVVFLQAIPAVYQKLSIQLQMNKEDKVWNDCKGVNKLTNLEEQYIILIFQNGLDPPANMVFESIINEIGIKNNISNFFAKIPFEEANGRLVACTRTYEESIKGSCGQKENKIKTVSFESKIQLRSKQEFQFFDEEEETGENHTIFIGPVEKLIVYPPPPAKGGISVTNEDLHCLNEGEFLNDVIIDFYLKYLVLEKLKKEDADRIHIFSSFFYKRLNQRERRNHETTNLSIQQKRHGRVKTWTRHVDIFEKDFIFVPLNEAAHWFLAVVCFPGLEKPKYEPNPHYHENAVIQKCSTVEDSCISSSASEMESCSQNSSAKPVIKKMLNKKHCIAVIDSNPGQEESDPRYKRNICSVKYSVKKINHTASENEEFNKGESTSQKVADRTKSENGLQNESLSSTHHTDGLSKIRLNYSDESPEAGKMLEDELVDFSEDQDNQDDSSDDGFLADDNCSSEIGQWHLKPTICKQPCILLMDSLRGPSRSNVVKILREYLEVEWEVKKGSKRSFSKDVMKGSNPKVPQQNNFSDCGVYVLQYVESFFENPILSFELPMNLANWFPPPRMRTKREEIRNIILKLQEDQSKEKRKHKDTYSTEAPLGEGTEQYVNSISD
The class given is functional.

A short description of experiment [15]: microbe, parasite or virus in culture. The class given is functional. Particulars: Mycobacterium tuberculosis.
The subject of experiment [16] is HEK293. Kind of experiment: inhibition of NOD1-driven NF-kB reporter – cell-based, luminescence, uHTS, primary screen (AID 1578). The class given is functional. Particulars: Homo sapiens.
The target of experiment [17] is Nucleotide-binding oligomerization domain-containing protein 2 (Homo sapiens, UniProt Q9HC29). Description: inhibition of NOD2-driven NF-kB reporter – cell-based, luminescence, uHTS, HEK293 (AID 1566). The class given is functional.
Experiment [18] deals with HEK293. Description: cells. The class given is functional, cell-based. The following applies: Homo sapiens. This is another data set of the same source.
The target in experiment [19] is T4, Sentrin-specific protease 7 (Homo sapiens, UniProt Q9BQF6).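 Further: Luminescence-based dose-response confirmation of ultra-high-throughput screening hits, measuring inhibition of SENP7.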
T4 sequence (Q9BQF6 whole entry): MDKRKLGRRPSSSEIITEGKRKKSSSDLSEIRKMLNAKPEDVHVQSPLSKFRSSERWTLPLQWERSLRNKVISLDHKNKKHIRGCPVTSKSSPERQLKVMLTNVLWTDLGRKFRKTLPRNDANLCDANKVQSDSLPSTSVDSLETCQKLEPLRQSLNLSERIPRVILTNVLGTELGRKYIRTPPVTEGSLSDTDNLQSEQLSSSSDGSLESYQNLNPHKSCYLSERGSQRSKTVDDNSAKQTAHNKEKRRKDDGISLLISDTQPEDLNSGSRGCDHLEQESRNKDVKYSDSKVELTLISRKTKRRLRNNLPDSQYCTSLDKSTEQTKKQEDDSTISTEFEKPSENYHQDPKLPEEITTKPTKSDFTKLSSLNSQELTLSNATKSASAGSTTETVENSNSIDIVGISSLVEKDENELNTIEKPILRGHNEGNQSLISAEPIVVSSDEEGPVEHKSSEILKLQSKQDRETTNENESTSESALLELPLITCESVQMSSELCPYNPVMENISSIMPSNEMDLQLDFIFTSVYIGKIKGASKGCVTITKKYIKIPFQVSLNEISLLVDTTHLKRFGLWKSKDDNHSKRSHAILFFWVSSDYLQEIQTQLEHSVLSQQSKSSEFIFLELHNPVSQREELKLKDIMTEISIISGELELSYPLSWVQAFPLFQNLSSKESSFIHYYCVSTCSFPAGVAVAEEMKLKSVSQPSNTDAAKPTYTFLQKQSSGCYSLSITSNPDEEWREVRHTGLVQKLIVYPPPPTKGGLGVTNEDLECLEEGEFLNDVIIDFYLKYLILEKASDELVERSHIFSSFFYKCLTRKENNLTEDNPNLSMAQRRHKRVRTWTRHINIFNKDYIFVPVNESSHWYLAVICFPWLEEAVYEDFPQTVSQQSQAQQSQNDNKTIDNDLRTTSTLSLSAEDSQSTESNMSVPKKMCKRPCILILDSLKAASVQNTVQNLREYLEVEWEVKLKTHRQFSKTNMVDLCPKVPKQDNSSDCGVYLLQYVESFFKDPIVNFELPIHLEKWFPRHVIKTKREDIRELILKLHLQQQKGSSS
The class given is functional.

In experiment [20] the test system is HEK293. Description: cells. The class given is functional, cell-based. Particulars: Homo sapiens. This is another data set of the same source.
The target in experiment [21] is T5, Sentrin-specific protease 8 (Homo sapiens, UniProt Q96LD8).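 Further: luminescence read-out of SENP8 inhibition, dose-response confirmation following an ultra-high-throughput screen.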
T5 sequence (Q96LD8 whole entry): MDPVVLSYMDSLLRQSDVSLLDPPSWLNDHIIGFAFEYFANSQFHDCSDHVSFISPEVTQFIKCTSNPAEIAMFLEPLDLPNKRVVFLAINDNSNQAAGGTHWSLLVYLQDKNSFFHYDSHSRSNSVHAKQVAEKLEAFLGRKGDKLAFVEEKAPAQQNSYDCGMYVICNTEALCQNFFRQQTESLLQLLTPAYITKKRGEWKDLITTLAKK
The class given is functional.

Broadly, the EC50 is the midpoint of the concentration-response curve. For orientation: IC50 means the concentration at which inhibition is half-maximal.

Activity calls are given as the source filed them.

Metabotropic glutamate receptor 5, sequence (P31424 whole entry, the tested form may be a part): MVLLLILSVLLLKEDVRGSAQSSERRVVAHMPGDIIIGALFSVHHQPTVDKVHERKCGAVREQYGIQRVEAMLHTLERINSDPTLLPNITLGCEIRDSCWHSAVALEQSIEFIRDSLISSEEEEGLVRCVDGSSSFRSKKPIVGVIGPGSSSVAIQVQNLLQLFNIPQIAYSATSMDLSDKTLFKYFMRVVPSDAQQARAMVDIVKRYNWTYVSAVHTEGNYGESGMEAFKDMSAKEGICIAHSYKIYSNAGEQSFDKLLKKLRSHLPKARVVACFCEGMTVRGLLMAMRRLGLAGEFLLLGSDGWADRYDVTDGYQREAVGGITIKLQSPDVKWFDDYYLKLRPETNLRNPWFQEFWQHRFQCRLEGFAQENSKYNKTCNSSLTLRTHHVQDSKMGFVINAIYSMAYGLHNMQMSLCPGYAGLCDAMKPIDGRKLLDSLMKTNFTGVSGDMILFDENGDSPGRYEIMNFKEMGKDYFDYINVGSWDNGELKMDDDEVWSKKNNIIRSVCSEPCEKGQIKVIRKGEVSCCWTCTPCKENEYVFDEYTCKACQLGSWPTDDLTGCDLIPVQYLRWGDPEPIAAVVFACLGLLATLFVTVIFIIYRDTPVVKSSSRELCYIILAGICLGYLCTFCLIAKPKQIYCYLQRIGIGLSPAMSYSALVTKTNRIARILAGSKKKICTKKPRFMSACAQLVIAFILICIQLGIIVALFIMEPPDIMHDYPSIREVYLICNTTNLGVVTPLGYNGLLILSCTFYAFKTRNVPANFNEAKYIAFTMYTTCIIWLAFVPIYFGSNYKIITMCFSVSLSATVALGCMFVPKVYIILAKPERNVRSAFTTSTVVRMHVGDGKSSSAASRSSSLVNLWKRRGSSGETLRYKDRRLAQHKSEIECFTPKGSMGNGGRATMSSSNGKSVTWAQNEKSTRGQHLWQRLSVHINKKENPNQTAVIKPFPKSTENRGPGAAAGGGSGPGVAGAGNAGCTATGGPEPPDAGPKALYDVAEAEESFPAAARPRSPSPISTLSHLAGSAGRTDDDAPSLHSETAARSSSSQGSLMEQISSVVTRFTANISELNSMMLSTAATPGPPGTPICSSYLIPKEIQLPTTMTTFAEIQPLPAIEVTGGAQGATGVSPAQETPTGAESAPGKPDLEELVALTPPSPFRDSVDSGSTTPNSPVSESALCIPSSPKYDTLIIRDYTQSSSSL
Potassium channel subfamily K member 3, sequence (O14649 whole entry): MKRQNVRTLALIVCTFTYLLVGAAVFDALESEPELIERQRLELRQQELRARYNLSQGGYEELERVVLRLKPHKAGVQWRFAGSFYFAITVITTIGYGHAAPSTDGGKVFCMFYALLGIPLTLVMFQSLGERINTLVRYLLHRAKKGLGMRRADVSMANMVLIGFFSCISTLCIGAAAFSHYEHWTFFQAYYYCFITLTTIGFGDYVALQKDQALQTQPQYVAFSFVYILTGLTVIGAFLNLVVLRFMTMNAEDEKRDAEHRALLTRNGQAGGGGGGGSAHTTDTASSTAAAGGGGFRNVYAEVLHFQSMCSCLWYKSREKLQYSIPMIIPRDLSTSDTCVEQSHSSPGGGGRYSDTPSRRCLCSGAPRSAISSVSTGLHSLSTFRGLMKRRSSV
Cytochrome P450 2C19, sequence (P33261 whole entry): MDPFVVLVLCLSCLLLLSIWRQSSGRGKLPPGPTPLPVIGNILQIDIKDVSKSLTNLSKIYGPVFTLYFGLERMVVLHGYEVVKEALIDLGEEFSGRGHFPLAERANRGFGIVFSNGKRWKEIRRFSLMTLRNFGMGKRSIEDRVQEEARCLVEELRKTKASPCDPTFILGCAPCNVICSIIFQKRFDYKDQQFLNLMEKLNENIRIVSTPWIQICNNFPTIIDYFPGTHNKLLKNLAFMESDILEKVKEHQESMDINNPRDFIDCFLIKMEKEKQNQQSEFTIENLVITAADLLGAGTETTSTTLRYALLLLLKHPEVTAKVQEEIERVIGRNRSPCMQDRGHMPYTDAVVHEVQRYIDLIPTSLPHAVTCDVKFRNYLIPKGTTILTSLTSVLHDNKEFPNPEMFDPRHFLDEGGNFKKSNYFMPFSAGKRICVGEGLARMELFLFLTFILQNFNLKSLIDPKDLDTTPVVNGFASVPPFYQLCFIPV
Cytochrome P450 3A4, sequence (P08684 whole entry): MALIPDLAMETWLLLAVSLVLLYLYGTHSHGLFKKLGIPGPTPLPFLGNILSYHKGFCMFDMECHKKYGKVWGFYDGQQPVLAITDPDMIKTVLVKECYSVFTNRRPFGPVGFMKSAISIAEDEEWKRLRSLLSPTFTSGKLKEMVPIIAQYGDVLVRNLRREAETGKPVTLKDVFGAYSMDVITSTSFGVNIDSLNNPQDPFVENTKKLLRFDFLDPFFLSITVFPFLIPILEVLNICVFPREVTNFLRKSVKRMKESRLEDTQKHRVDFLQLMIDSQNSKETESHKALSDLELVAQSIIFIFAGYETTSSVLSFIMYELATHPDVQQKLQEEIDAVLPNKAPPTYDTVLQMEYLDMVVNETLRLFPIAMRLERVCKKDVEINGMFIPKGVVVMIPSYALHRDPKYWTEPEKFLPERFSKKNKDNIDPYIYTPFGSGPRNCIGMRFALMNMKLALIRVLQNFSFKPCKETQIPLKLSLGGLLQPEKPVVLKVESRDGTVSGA
Potassium channel subfamily K member 9, sequence (Q9NPC2 whole entry): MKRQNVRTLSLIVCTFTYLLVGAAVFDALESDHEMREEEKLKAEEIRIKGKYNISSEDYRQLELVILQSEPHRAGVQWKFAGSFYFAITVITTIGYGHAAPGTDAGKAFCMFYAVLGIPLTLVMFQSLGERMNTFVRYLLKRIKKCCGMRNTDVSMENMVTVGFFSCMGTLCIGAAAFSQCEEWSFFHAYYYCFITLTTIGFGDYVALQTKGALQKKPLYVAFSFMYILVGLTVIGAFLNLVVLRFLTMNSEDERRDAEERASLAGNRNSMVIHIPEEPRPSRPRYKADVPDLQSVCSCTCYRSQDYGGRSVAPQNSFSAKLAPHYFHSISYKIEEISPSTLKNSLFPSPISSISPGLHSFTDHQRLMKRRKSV
Metabotropic glutamate receptor 3, sequence (P31422 whole entry): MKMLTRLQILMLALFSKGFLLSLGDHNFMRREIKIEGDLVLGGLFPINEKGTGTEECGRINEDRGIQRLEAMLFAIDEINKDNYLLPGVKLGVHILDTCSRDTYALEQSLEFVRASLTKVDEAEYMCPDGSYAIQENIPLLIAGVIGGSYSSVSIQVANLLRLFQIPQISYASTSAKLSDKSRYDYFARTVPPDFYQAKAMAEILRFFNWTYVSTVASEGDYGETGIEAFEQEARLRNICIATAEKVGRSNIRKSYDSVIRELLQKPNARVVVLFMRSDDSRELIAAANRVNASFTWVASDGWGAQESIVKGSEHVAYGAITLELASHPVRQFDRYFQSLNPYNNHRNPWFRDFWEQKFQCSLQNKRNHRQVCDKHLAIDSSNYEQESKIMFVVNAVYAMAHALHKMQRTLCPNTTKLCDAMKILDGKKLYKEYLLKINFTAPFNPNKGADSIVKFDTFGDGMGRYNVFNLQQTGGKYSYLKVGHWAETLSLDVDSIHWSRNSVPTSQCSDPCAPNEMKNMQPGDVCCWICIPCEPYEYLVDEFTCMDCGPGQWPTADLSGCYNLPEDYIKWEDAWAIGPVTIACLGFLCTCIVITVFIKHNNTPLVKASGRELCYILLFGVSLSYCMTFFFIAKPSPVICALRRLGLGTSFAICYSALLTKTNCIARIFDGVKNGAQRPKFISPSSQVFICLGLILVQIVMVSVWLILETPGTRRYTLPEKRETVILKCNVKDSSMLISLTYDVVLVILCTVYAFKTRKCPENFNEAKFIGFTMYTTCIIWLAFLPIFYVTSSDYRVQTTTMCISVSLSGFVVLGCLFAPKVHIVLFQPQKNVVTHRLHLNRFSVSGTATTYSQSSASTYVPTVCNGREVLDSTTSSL
Endoplasmic reticulum aminopeptidase 1, sequence (Q9NZ08 whole entry): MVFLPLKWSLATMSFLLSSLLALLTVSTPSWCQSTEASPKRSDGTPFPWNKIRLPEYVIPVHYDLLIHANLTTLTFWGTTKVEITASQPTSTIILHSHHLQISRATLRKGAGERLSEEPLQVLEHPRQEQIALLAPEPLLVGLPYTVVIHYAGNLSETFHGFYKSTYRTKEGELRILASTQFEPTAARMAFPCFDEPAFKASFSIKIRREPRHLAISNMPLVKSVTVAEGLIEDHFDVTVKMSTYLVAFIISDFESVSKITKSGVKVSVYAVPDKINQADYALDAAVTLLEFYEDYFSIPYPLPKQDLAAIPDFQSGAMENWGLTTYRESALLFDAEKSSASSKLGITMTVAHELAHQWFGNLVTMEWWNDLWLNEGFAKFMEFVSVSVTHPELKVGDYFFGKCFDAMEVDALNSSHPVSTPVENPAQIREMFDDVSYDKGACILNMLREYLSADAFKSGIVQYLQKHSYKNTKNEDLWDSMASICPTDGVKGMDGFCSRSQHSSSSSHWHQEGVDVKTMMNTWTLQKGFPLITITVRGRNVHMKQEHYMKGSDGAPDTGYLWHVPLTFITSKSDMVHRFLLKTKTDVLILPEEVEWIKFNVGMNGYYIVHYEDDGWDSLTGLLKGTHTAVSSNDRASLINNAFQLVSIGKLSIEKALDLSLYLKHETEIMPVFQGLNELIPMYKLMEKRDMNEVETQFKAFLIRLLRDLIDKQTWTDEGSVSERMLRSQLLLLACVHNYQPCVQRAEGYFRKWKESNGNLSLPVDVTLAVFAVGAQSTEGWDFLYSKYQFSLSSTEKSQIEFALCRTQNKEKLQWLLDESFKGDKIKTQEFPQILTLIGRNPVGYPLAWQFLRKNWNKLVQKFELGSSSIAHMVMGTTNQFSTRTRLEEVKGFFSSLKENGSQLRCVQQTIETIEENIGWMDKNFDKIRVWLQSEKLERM

In the case of `CC(C(=O)Nc1ccc(F)nc1)N(c1ccccc1Cl)S(C)(=O)=O` (centres undefined), in experiment [1], the EC50 is 10 µM (inconclusive).
As for `Cc1scc(C(=O)N/N=C/c2ccsc2)c1C`, in experiment [2], the EC50 is > 67.6 µM (inactive).
Turning to `COc1ccc(-c2ccc3cc(C(=O)N4CCCC(CO)C4)ccc3c2)c(OC)c1` (centres undefined), the IC50 in experiment [3] is 9.87 µM (active).
As for `CSC1=NS(=O)(=O)c2c(C)nn(C)c2S1`, the IC50 in [4] is 10.7 µM (active); on Large T antigen, 32.8 µM (active). In addition, the AC50 in experiment [5] is 18.7 µM (active).
For `O=C(O)CCCCOc1ccc2cc(Br)c(=O)oc2c1`, the IC50 in experiment [6] and in experiment [7] was > 100 µM (inactive) in each case.
Consider `COc1ccccc1C(=O)Nc1cccc(NC(=O)c2cccc3ccccc23)c1`, for which the IC50 is 0.24 µM (active) in experiment [8] and 0.003 µM (active) in experiment [9].
For the compound `N=C1Sc2ccccc2C2=NCCCN12`, the AC50 at Cytochrome P450 3A4 is 25.1 µM (inconclusive); in experiment [10], > 70 µM (inactive); at Cytochrome P450 2C19 it was 6.31 µM (inconclusive).
As to `CCOc1cccc(/C=C/c2ccc3cccc(O)c3n2)c1O`, the IC50 in the experiment on HEK293 [11] is 3.71 µM (inactive); in the experiment with HEK293 [12], 11.5 µM (active); in experiment [14], 7.66 µM (active); in the experiment with HEK293 [18] it was > 20 µM (inactive); in experiment [19], 4.32 µM (active); with HEK293 [20] it was > 20 µM (inactive). Besides, the IC50 in experiment [21] is > 100 µM (inactive). Further, the AC50 in experiment [13] was 26 µM (active). Also, in experiment [15], the CC50 was 35.7 µM (active). Moreover, the EC50 (in the experiment on HEK293 [16]; in experiment [17]) was > 20 µM (inactive) each time.
